Data taken from patent US20230210902A1, “SARS-COV-2-SPECIFIC T CELLS” (priority 2020, published 2023).

Tested on: CTLs from Cas9 control and NR3C1 KO groups
Experiment: Annexin V apoptosis assay with dexamethasone
Format: cell-based, human
Conditions: 200 µM, 72 hours
Description: Annexin V apoptosis assay was performed to evaluate the effect of dexamethasone on the viability of CTLs from Cas9 control and NR3C1 KO groups. CTLs from both groups were treated with 200 µM dexamethasone (Sigma) for 72 hours. Cells were then collected, washed with annexin V buffer, and stained with annexin V (V500; BD Biosciences) and live/dead viability dye (efluor 660; Invitrogen) in addition to CD3 APC Cy7 (Biolegend, Clone HIT3A), CD4 APC (E Biosciences, Clone SK3), and CD8 PerCP Cy5.5 (Biolegend, Clone SK1). The proportion of apoptotic (positive for annexin V) and dead CTLs (positive for live/dead stain) was determined by flow cytometry.

`C[C@@H]1C[C@H]2[C@@H]3CCC4=CC(=O)C=C[C@]4(C)[C@@]3(F)[C@@H](O)C[C@]2(C)[C@@]1(O)C(=O)CO` [Dex, dexamethasone] was tested, and the “viability of control Cas9 COVID-19 CTLs” value was “absence of viable cells”.
